{"source": "patent US20130210852A1", "about": "“METHODS FOR TREATING INFECTION” (priority 2010, published 2013)", "key": {"[1]": {"test_system": "EAEC strain O42 adherence to HEp-2 cells", "format": "cell-based, human"}, "S. sonnei on HeLa cells": {"test_system": "S. sonnei on HeLa cells", "test": "S. sonnei adherence and internalization in HeLa cells", "format": "cell-based, human", "conditions": "HeLa cells pretreated 24 h"}, "[2]": {"test_system": "EAEC adherence with dialyzed conditioned medium of HEp-2 cells", "test": "Effect of dialyzed HEp-2 supernatants on EAEC adherence", "format": "cell-based, human", "design": "dose or concentration left out as unconfirmed", "conditions": "HEp-2 treated 24 h, supernatant dialyzed; chambers with or without HEp-2 cells, 3 h", "method": "HEp-2 cells were cultured in T-175 flasks as described above. […] After 24 h, the medium was collected, loaded into regenerated cellulose dialysis tubing (cutoff, 6 to 8 kDa; Spectra/Por, Rancho Domiguez, Calif.), and dialyzed against 4 liters of PBS changed four times. Each dialysis step lasted at least 6 h and was carried out at 4° C. Dialyzed supernatants were either used immediately in adherence assays or stored at −20° C. until use.\nThe effect of supernatants on EAEC adherence was determined by mixing EAEC with the dialyzed media from the different antibiotic (or control) treatment groups and adding the bacteria to HEp-2 cells cultured in chambered slides or to chambered slides with no HEp-2 cells. Adherence was visualized microscopically as described above."}, "[3]": {"test_system": "enterotoxigenic E coli strains", "test": "MIC against rifaximin by agar dilution, ETEC isolates", "format": "cell-based", "conditions": "Escherichia coli", "method": "(§1) Five enterotoxigenic E coli strains, 2 enteroaggregative E coli strains, and 1 S sonnei isolate were included in the study. The isolates had been identified previously from patients with TD acquired in Guadalajara, Mexico, during the summer of 2004 (5). […] The susceptibility of all isolates to rifaximin was determined by agar dilution methodology following the recommendations of the Clinical and Laboratory Standards Institute."}, "[4]": {"test_system": "enteroaggregative E coli strains", "test": "MIC against rifaximin by agar dilution, EAEC isolates", "format": "cell-based", "conditions": "Escherichia coli; 2 EAEC isolates", "method": "as §1"}, "S sonnei isolate": {"test_system": "S sonnei isolate", "test": "MIC against rifaximin by agar dilution, S sonnei isolate", "format": "cell-based", "conditions": "Shigella sonnei", "method": "as §1"}, "[5]": {"test_system": "MMP-9 in S sonnei isolate", "test": "Matrix metalloproteinase-9 detection by gelatin zymography, S sonnei", "format": "cell-based, Shigella sonnei", "method": "Matrix Metalloproteinase-9 Detection Expression of matrix metalloproteinase-9 (MMP-9) was analyzed using gelatin zymography in all viable EAEC and S. sonnei isolates growing on MacConkey agar. Isolates were suspended in 1 mL of 0.1 M phosphate buffered saline (pH 7.2) and centrifuged at 1000 g for 10 minutes at 4° C. The supernatant was subjected to gelatin zymography to detect MMP-9 activity using a modified Heussen and Dowdle protocol (9). In summary, the supernatant was diluted 1:2 in a sample buffer (125 mM Tris-HCl, pH 6.8, 20% glycerol, 4% sodium dodecyl sulfate, 0.02% bromphenol blue), and 20 μL was loaded on to a 10% SDS-PAGE gel containing 1 mg/mL gelatin. Prestained standard proteins were used as molecular weight markers. After electrophoresis, gels were rinsed with incubation buffer (2.5% triton X-100, 50 mM Tris-HCl, pH 7.4, 0.02% Brij 35, 10 mM CaCl2, 2 μM ZnCl2) for 1 hour at room temperature to remove SDS. Gels were then incubated overnight at 37° C. and subsequently stained with Coomassie brilliant blue R-250 (Thermo Fisher Scientific, Inc, Rockford, Ill.). […] Matrix metalloproteinase-9 was identified among all gelatinolytic proteins by size."}, "[6]": {"test_system": "HCT-8 cells infected with rifaximin-exposed EAEC strains", "test": "HCT-8 cell culture assay for interleukin-8 (IL-8) release", "format": "cell-based, human", "method": "The human intestinal adenocarcinoma cell line, HCT-8, was used to study inflammatory modulators as previously published (Huang, 2004 #15). Monolayers of HCT-8 cells (ATCC CCL-244; American Type Culture Collection, Rockville, Md.) were grown in 24-well culture plates (Corning Costar, Corning, N.Y.) in an RPMI 1640 medium (Sigma-Aldrich Co, St Louis, Mo.) supplemented with 100 U/mL of penicillin, 100 μg/mL of streptomycin, and 0.25 μg/mL of amphotericin B. They were maintained in a medium supplemented with 10% fetal bovine serum (HyClone, Logan, Utah) and grown until approximately 4×10^5 cells/well confluence.\nHCT-8 cells were infected with EAEC strains recovered from MacConkey agar in triplicate at a 100:1 ratio in an antibiotic- and serum-free RPMI 1640 medium. Cells were incubated for 3 hours in a humidified chamber at 37° C. in an atmosphere containing 5% CO2, after which supernatants were collected. The supernatant concentration of IL-8 in each well was determined by using a commercially available enzyme-linked immunosorbent assay kit for human IL-8 (R&D Systems, Minneapolis, Minn.). All samples were tested twice, and the average value was reported."}, "C difficile [7]": {"test_system": "C difficile", "conditions": "cited from earlier work"}, "C difficile [8]": {"test_system": "C difficile", "conditions": "cited from earlier work", "remark": "listed apart in the source"}, "EAEC": {"test_system": "EAEC", "conditions": "previously established in the applicant's laboratory; cited from earlier work"}, "HEp-2 cells": {"test_system": "HEp-2 cells", "test": "Cytokine arrays of HEp-2 supernatants (Panomics)", "conditions": "antibiotic 64 μg/ml, 24 h"}, "C difficile [9]": {"test_system": "C difficile", "test": "Susceptibility testing of C difficile isolates (rifaximin agar dilution, rifampin E strips)"}, "[10]": {"conditions": "201 isolates, Canada, 1992 to 2007"}}, "note": "Entries after “also recorded” stand apart in the source; their conditions may differ. Like-named read-outs stand apart in the source and are kept apart here.", "data": [{"compound": "CO[C@H]1/C=C/O[C@@]2(C)Oc3c(C)c(O)c4c(O)c(c5c(nc6cc(C)ccn65)c4c3C2=O)NC(=O)/C(C)=C\\C=C\\[C@H](C)[C@H](O)[C@@H](C)[C@@H](O)[C@@H](C)[C@H](OC(C)=O)[C@@H]1C", "note": "[Rifaximin, (2S,16Z,18E,20S,21S,22R,23R,24R,25S,26S,27S,28E)-5,6,21,23,25 Pentahydroxy-27-methoxy-2,4,11,16,20,22,24,26-octamethyl-2,7-(epoxypentadeca-(1,11,13)trienimino)benzofuro (4,5-e) pyrido(1,2,-a) benzimidazole-1,15(2H)-dione,25-acetate]", "values": [{"measurement": "EAEC adherence to HEp-2 cells (CFU, % of total bacteria added)", "setting": "[1]", "value": "significantly lower; also recorded: significantly reduced; also recorded: reduced EAEC adherence"}, {"measurement": "EAEC bacterial counts in the supernatants", "setting": "[1]; HEp-2 cells pretreated 24 h, EAEC 3 h", "value": "No differences in bacterial counts"}, {"measurement": "S. sonnei attachment", "setting": "S. sonnei on HeLa cells", "value": "no effect"}, {"measurement": "S. sonnei internalization", "setting": "S. sonnei on HeLa cells; gentamicin protection", "value": "no effect"}, {"measurement": "EAEC adherence after mixing with dialyzed supernatants of antibiotic-treated HEp-2 cells", "setting": "[2]", "value": "adhered poorly"}, {"measurement": "MIC", "setting": "[3]; read-out: MIC, ETEC, 2 ETEC isolates", "value": 128, "unit": "µg/mL"}, {"measurement": "MIC", "setting": "[3]; read-out: MIC, all ETEC and EAEC isolates, 5 ETEC and 2 EAEC isolates", "value": "64 to 128", "unit": "µg/mL"}, {"measurement": "MIC", "setting": "[4]", "value": 64, "unit": "µg/mL"}, {"measurement": "MIC", "setting": "S sonnei isolate", "value": 16, "unit": "µg/mL"}, {"measurement": "MMP-9 in the S sonnei isolate", "setting": "[5]; other time points and rifaximin concentrations", "value": "either undetectable or the isolate was not viable"}, {"measurement": "MMP-9 in the S sonnei isolate", "setting": "[5]; rifaximin 8 mg/L for 4 hours", "value": "detectable"}, {"measurement": "IL-8 production from HCT-8 cells infected with rifaximin-exposed EAEC", "setting": "[6]; EAEC exposed to rifaximin 64 mg/L for 4 hours", "value": "caused IL-8 production"}, {"measurement": "IL-8 production from HCT-8 cells infected with rifaximin-exposed EAEC", "setting": "[6]; EAEC exposed to rifaximin 8 or 32 mg/L for 4 or 8 hours", "value": "elicited production of IL-8"}, {"measurement": "IL-8 production from HCT-8 cells infected with rifaximin-exposed EAEC", "setting": "[6]; all other time points and rifaximin concentrations", "value": "Interleukin-8 was either undetected following HCT-8 infection with EAEC strains, or EAEC strains were not viable"}, {"measurement": "IL-8 production from HCT-8 cells infected with rifaximin-exposed EAEC", "setting": "[6]; viable EAEC exposed to rifaximin 8, 32, or 64 mg/L for 18 hours or 8 mg/L for 24 hours", "value": "did not elicit IL-8 production"}, {"measurement": "isolates resistant to rifaximin, based on MIC values", "setting": "C difficile [7]; 110 C difficile isolates", "value": 2.7, "unit": "%"}, {"measurement": "MIC50 against C difficile", "setting": "C difficile [7]; 110 isolates, 1983 to 2004", "value": 0.0075, "unit": "µg/mL"}, {"measurement": "MIC90 against C difficile", "setting": "C difficile [7]; 110 isolates, 1983 to 2004", "value": 0.015, "unit": "µg/mL"}, {"measurement": "isolates with MIC values >2 μg/mL", "setting": "C difficile [8]; 201 C difficile isolates", "value": 4, "unit": "%"}, {"measurement": "MIC50 against C difficile", "setting": "C difficile [8]; [10]", "value": 0.008, "unit": "µg/mL"}, {"measurement": "MIC90 against C difficile", "setting": "C difficile [8]; [10]", "value": 0.015, "unit": "µg/mL"}, {"measurement": "MIC50 for EAEC", "setting": "EAEC", "value": 64, "unit": "µg/mL"}, {"measurement": "cytokine profile of HEp-2 supernatants", "setting": "HEp-2 cells", "value": "contained detectable levels of RANTES and IL-4 only; also recorded: reduced the expression of various proinflammatory cytokines"}, {"measurement": "MIC50 against C difficile", "setting": "C difficile [9]; 359 isolates", "value": "<0.01", "unit": "µg/mL"}, {"measurement": "MIC90 against C difficile", "setting": "C difficile [9]; 359 isolates", "value": 0.25, "unit": "µg/mL"}, {"measurement": "MIC50 against C difficile", "setting": "C difficile [9]; 359 isolates, listed as rifaximin", "value": "< 0.01", "unit": "µg/mL"}, {"measurement": "Isolates resistant to rifaximin alone (n = 11), (%)", "setting": "C difficile [9]; genotype A +, B +, BT +, tcdC-del +", "value": "(0) %"}, {"measurement": "Isolates resistant to rifaximin alone (n = 11), (%)", "setting": "C difficile [9]; genotype A +, B +, BT +, tcdC-del −", "value": "(18) %"}, {"measurement": "Isolates resistant to rifaximin alone (n = 11), (%)", "setting": "C difficile [9]; genotype A +, B +, BT −, tcdC-del +", "value": "(9) %"}, {"measurement": "Isolates resistant to rifaximin alone (n = 11), (%)", "setting": "C difficile [9]; genotype A +, B +, BT −, tcdC-del −", "value": "(55) %"}, {"measurement": "Isolates resistant to rifaximin alone (n = 11), (%)", "setting": "C difficile [9]; genotype A −, B −, BT −, tcdC-del −", "value": "(18) %"}]}]}
